Laboratory results as given in PMC9781827, “Isolation and Identification of Anti-Inflammatory Peptide from Goose Blood Hydrolysate to Ameliorate LPS-Mediated Inflammation and Oxidative Stress in RAW264.7 Macrophages” (Molecules, 2022).
Ends that are not written are not given here.

Key:
[1] = biological target: T1, pepsin (Sus scrofa, UniProt P00791); test: Simulated gastric digestion with pepsin, products analysed by LC–MS/MS; assay type: in vitro ADME, porcine; conditions: 37 °C
T1 construct: purchased Shanghai Aladdin Biochemical Technology Co., Ltd; host or cells: porcine gastric mucosa
Description: (§1) The fractionation of the peak with the highest anti-inflammatory activity obtained from RP-LC was further identified by LC-MS/MS equipped with a reversed phase BEH C18 analytical column (1.7 μm, 2.1 × 100 mm, Waters Inc., Milford, MA, USA). The fraction of peptide with the highest anti-inflammatory activity obtained from RP-LC was further Identified by LC-MS/MS. Eluent A: 0.065% TFA in 2% acetonitrile; Eluent B: 0.050% TFA in 80% acetonitrile. The gradient elution parameters: 0–30 min, 100% eluent A; 30–60 min, 30–80% eluent B; 60–80 min, 100% eluent A. The above flow rates were 0.5 mL/min. The fractions were detected at 280 nm by an ultraviolet detector. The flow entered directly into the MS/MS system (MALDI SYNAPT Q-TOF MS, Waters, Inc. Milford, MA, USA) for multiple reaction measurement. The recording mass range of precursor ions was m/z 50–4000. Nitrogen was used as a collision gas. Capillary voltage was set at 3.5 kV and cone voltage at 20 V. Source block temperature was set at 100 °C and desolvation temperature at 250 °C. Collision energy and detector voltage were 15 and 1600 V, respectively. The desolvation and cone gas flow were 500 and 50 L/h, respectively. The N-terminal fragment ion series (B series) and the C-terminal fragment ion series (Y series) were analysed. The amino acid sequence of the peptide was obtained by comprehensive analysis of B and Y ion series through Mass Lynx V4.1 operating system.
(§2) The stability of GBP in response to pepsin and trypsin in the simulation of GI digestion in vitro was examined based on Xie et al.. First, 2 g of NaCl and 3.2 g of pepsin from porcine gastric mucosa (Purity: 1:3000, CAS: 9001-75-6, Shanghai Aladdin Biochemical Technology Co., Ltd., Shanghai, China) were added to 800 mL of ultrapure water. The pH of the solution was adjusted with 6 mol/L hydrochloric acid to 3.0, and the volume was adjusted with ultrapure water to 1 L (as simulated gastric juice). […]

[2] = test system: T2, pepsin; test: as above; assay type: in vitro ADME, porcine; conditions: pig, simulated gastric fluid; simulated gastric juice (pepsin from porcine gastric mucosa, NaCl), pH 3.0, 200 μg/mL peptide, 2 h, 37 °C; LC–MS/MS; read-out: share of IVYPWTQR split into smaller fragments after pepsin treatment
T2 construct: purchased Shanghai Aladdin Biochemical Technology Co., Ltd; host or cells: porcine gastric mucosa
Description: as §1, §2

[3] = biological target: T3, trypsin (Sus scrofa, UniProt P00761); test: Simulated intestinal digestion with trypsin; assay type: in vitro ADME; conditions: simulated intestinal fluid (trypsin from porcine pancreas, bile salt), pH 7.6, 2 h, 37 °C, after pepsin step; judged by unchanged cytokine levels
T3 construct: purchased Shanghai Aladdin Biochemical Technology Co., Ltd; host or cells: porcine pancreas
Description: The stability of GBP in response to pepsin and trypsin in the simulation of GI digestion in vitro was examined based on Xie et al.. First, 2 g of NaCl and 3.2 g of pepsin from porcine gastric mucosa (Purity: 1:3000, CAS: 9001-75-6, Shanghai Aladdin Biochemical Technology Co., Ltd., Shanghai, China) were added to 800 mL of ultrapure water. The pH of the solution was adjusted with 6 mol/L hydrochloric acid to 3.0, and the volume was adjusted with ultrapure water to 1 L (as simulated gastric juice). Then, 0.68 g of potassium dihydrogen phosphate and 7.7 mL sodium hydroxide solution (0.2 mol/L) were dissolved in 70 mL of ultrapure water; 1 g of trypsin from porcine pancreas (Purity: ≥250 units/mg, CAS: […], Shanghai Aladdin Biochemical Technology Co., Ltd., Shanghai, China) and 6 g of bile salt were added and dissolved. The above solution was mixed and supplemented with ultrapure water to 1 L. Finally, the pH of the mixed solution was adjusted to 7.6 with sodium hydroxide solution (0.2 mol/L) (as simulated intestinal fluid). The 200 μg/mL peptide solution was adjusted to a pH of 3.0 with a 1 mol/L HCl solution, and 5 mL of simulated gastric juice was added to the solution and the reaction was carried out for 2 h in 37 °C water bath. Then, the simulated gastric digestion was terminated by being heated at 100 °C for 10 min. […]

T1 sequence (P00791 60-385): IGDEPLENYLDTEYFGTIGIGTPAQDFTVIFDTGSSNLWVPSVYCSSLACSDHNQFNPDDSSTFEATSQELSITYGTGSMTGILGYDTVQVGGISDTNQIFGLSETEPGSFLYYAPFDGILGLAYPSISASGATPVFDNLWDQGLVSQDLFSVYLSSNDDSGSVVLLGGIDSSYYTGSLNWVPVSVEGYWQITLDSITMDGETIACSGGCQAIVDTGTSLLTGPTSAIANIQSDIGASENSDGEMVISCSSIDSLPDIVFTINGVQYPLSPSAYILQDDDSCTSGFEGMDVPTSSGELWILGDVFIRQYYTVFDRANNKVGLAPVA
T3 sequence (P00761 9-231): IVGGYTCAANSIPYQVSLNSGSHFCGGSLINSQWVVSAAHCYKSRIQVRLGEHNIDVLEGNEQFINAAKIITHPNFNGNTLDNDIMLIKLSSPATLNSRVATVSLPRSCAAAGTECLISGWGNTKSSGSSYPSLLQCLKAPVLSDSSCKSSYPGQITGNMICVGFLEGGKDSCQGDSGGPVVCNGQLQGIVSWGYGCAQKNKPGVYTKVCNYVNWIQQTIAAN

Substance: IVYPWTQR [IVYPWTQR, IIe-Val-Tyr-Pro-Trp-Thr-Gln-Arg]
- stability against pepsin ([1]; simulated gastric digestion, pepsin, pH 3.0, 2 h): sensitive to pepsin
- metabolised at 2 h, 200 μg/mL [2]: ~45.2%
- stability against trypsin [3]: robustly resists trypsin

Substance: YPWTQR [fragment of IVYPWTQR after pepsin treatment]
- share of fragment formed from IVYPWTQR after pepsin treatment ([1]; simulated gastric juice (pepsin), pH 3.0, 200 μg/mL peptide, 2 h, LC–MS/MS): 25.19%
